The values that follow come from patent US5733904A, “Method for prevention and treatment of viral infectious diseases for viral suppression” (priority 1996, dated 1998).

The structures appear in SMILES notation. pIC50: −log10 of the molar value.

One series is described as follows: Acute toxicity in rats. The settings on record: rat, in vivo. Details: species or system rat (Jcl: Wistar, 5 weeks). Here is the method:
Acute toxicity of the compounds of the present invention were conducted on rats and mice, and low toxicity was confirmed.

The next series relates to rabbit plasma. The experiment in a line: Blood coagulation time (APTT, PT). The settings on record: for PT / APTT: N=4, mean ± S.E.; for PT: control 7.3 ± 0.4; for APTT: control 16.9 ± 0.8. Details: species or system rabbit (male, Japanese white). On the procedure:
a) Blood coagulation time:
Rabbits (male, Japanese white, body weight 2-3 kg, Oriental Yeast Co.) were used. […] After adding the test compound to the resultant plasma, activated partial thromboplastin time (APTT) and prothrombin time (PT) were measured by using a coagulometer (Coagtec, Coagtec TE600, EMRA; KC-10A, Baxter).

In another series the test system is C kinase. The settings on record: Cranial Nerve, 45 (9), 819-824, 1993; cited from earlier work.
A further series concerns parainfluenza virus. As to the kind of experiment: Inhibitory action for plaque formation of parainfluenza virus. The series is classed as cell-based. Conditions: mean of two, control 51.5. Here is the method: Experiments were performed according to a method described in Antiviral Chemistry and Chemotherapy, 5 (6), 366-371, 1994 and Experimental Virology, Ed. by NIH Japan alumni assoc., Maruzen Publ. 1982, p. 65-78 or p. 331-340.
Vero cells cultured in the medium (Dulbecco's modified MEM added with 10% FBS) were detached by trypsin (Sigma Corp.). The detached cells were suspended by 2×10^5 cells/ml in the same medium, and placed in the wells of a 48 hole plate. The plate was incubated at 37° C. under 5% CO2 for about one day to complete a full-sheet of the cells in all wells. After incubation, cultured supernatant was removed. A solution (50 μl) containing the compound diluted with 4-fold stepwise dilution by virus culture medium (MM: Dulbecco's modified MEM added with 2% FBS), was added thereto.
A viral solution, 50 μl, in which the number of virus (parainfluenza virus or Herpes simplex virus type I) was adjusted to about 50 pfu (plaque forming unit)/50 μl by MM, was added to each well. MM 400 μl containing 1% methylcellulose was added in each well to provide a compound-added test group. A control group was prepared by adding the viral culture medium without adding the test compound.
The groups were incubated at 37° C. under 5% CO2 for three days to form plaques and the number of plaques in each well was counted.
The test compounds were FAS, and the compound of formula [I] where R^1 is hydroxy. The final concentration of the compound in the solution was set to 100, 25, 6.3 and 1.6 μg/ml, respectively. Each test group included 2 wells and a mean of the plaque numbers was obtained.

The next series deals with HIV-1. The experiment in a line: Comparison of suppressive activity of HIV proliferation with FAS and other anti-HIV drugs (syncytium formation). The format is cell-based. On the procedure:
Comparison of suppressive activity of HIV proliferation with FAS and other anti-HIV drugs.
Experiments were conducted by the same method as in Example 3.
The medicaments used in this experiment were compounds of the present invention (FAS, and a compound of formula [I] where R^1 is hydroxy as in the above-mentioned Japanese Patent Unexamined Publication No. 61-152658), ddI (Sigma Corp.) and AZT (Sigma Corp.) which are used as medicaments for the treatment of AIDS, and dextran sulfate (Sigma Corp.).

The subject of series [1] is Env (gp120) protein, HIV-1 infected MOLT-4 cells. As to the kind of experiment: Suppressive action on expression of Env (gp120) protein on the surface of cells. Conditions: FIG. 3; Env positive cells after 5 days. The series is classed as cell-based. Here is the method:
(Suppressive action on expression of Env (gp120) protein on the surface of cells.)
Cells obtained by culturing MOLT-4 (culture condition: 37° C., 5% CO2 /95% air, RPMI medium (GIBCO Corp.) containing 10% FBS) were adjusted to a preferable number of cells (1×10^5 cells/50 μl ). The cell suspension, 50 μl, (infected with MOLT-4 and HIV-1: M.O.I.=1.0) was put in a 96 hole microplate and cultured for 1 hour to infect the cells.
A solution of the compound shown below, 100 μl, was added in each well and cultured for 5 days. The cultured solution was transferred into a plastic tube (Eppendorf Corp.) and centrifuged to collect the cells. The cells were treated with mouse anti-Env gp120 monoclonal antibody (Replingen Inc.) as a primary antibody and FITC (Fluorescein Isothiocyanate) labelled goat anti-mouse IgG (Cappel Corp.) as a secondary antibody to fluoresce. The number of fluorescent cells was fluoroscopically calculated by counting fluorescent cells according to an indirect fluorescent antibody technique (Techniques in HIV Research, Ed. A. Aldoriny and B. D. Walker, Stokton Press, New York, 1990).
Env positive cells (%) was calculated by the following equation:
Env positive cells (%)=(FITC) positive cells/total cells)×100
Compounds: FAS, H-7 and KN-62.
Control: solution without compound was used.

Usually LD50 stands for the dose expected to kill half of the subjects tested. With `Cl.O=S(=O)(c1cccc2cnccc12)N1CCCNCC1` [FAS, hexahydro-1-(5-isoquinoline-sulfonyl)-1H-1,4-diazepine hydrochloride], the LD50 in “Acute toxicity in rats” (iv, i. v., female) came out at 63.9 mg/kg; in “Acute toxicity in rats” (iv, i. v., male), 59.9 mg/kg; in “Acute toxicity in rats” (po, p. o., female), 348 mg/kg; in the series “Acute toxicity in rats” (po, p. o., male), 335 mg/kg; in the series “Acute toxicity in rats” (sc, s. c., female), 128 mg/kg; in “Acute toxicity in rats” (sc, s. c., male), 123 mg/kg. Moreover, the “effect on blood coagulation time (APTT, PT)” value in the series with rabbit plasma was “no effect on blood coagulation time”. For the same molecule, the PT in the series on rabbit plasma (10 μM) was determined as 7.1 ± 0.6 s; in the series on rabbit plasma (30 μM) it was 7.1 ± 0.5 s; in the series on rabbit plasma (100 μM), 7.6 ± 0.9 s. For the same molecule, the values for the APTT in the series with rabbit plasma (10 μM), with rabbit plasma (30 μM) and in the series with rabbit plasma (100 μM) were 16.4 ± 0.8 s, 16.0 ± 0.8 s and 16.3 ± 0.8 s, respectively. Besides, the “C kinase inhibition” value in the series on C kinase is “C kinase inhibition”. In addition, the “Plaque No.” value with parainfluenza virus (6.3 μg/ml) is recorded as 50.5; in the series with parainfluenza virus (25 μg/ml), 36; with parainfluenza virus (100 μg/ml), 3.5. Also, the “inhibitory activity of syncytium formation of HIV-1” value with HIV-1 is “higher sensitivity than dextran sulfate, ddI and AZT”. In the series with HIV-1 (Human immunodeficiency virus 1, FIG. 5, approximate, read-out: 50% inhibitory concentration, syncytium formation), the pIC50 is about 6.10. Further, the “inhibitory activity for Env expression” value in series [1] is “strong inhibitory activity for Env expression”.
